Experimental data taken from patent publication US20220054532A1, “VETERINARY COMPOSITIONS AND METHODS OF USE THEREFOR” (priority 2019, published 2022).

Columns and labels:
Type in all cases: in vivo
[1] = system: dogs suffering behavior aberrations and/or anxiety; assay: Example 5: behavior aberrations and anxiety, C-BARQ (canine); settings: C-BARQ day 0 vs 60, SID, 0 (no improvement) to 3 (marked improvement)
Description: (§1) This example examines the ability of embodiments of the invention versus Clomicalm® to reduce behavior aberrations and anxiety.
(§2) The first patient group is twenty dogs suffering behavior aberrations and/or anxiety, as determined by the canine behavioral assessment and research questionnaire (“C-BARQ”). See, e.g., P. Wiener et al., Use of questionnaire-based data to assess dog personality, 16 JOURNAL OF VETERINARY BEHAVIOR 81-85 (2016). The second patient group is twenty cats suffering behavior aberrations and/or anxiety, as determined by the feline behavioral assessment and research questionnaire (“Fe-BARQ”).
(§3) Each group is broken into five groups of four animals. The first group receives Clomicalm® as the sole active agent; the second group receives a composition comprising HMW HA as the sole active agent; the third group receives a composition comprising CBD as the sole active agent; the fourth group receives a composition comprising HMW HA and CBD as the active agents; and the fifth group receives a composition comprising HMW HA, CBD, valerian root, and scutillaria as the active agents.
(§4) Each composition is administered for a period of sixty (60) days, once a day (“SID”). Owners complete the species-appropriate C-BARQ or Fe-BARQ on days 0 and 60 of treatment. The results from the overall questionnaire are averaged and characterized as no improvement (score of 0), mild improvement (score of 1), moderate improvement (score of 2), or marked improvement (score of 3).
The following canine scores are observed and the results depicted in FIG. 5a: […]

[2] = system: cats suffering behavior aberrations and/or anxiety; assay: Example 5: behavior aberrations and anxiety, Fe-BARQ (feline); settings: Fe-BARQ day 0 vs 60, SID, 0 (no improvement) to 3 (marked improvement)
Description: as §1, §2, §3, §4
The following feline scores are observed and the results depicted in FIG. 5b: […]

[3] = system: dogs suffering from seizures; assay: Example 14: seizures in dogs (CBD Complex); settings: seizure scale 1 (seizure-free) to 10 (daily or multiple seizures)
Description: (§5) This example examines the ability of embodiments of the invention versus phenobarbital to treat seizures.
(§6) The patient group is twenty-four dogs suffering from seizures as diagnosed by their referring veterinarian. The patient group is broken into six groups of four animals. The first group receives phenobarbital as the sole active agent; the second group receives a composition comprising phenobarbital and Keppra®; the third group receives a composition comprising HMW HA as the sole active agent; the fourth group receives a composition comprising CBD as the sole active agent; the fifth group receives a composition comprising HMW HA and CBD Complex as the active agents; and the sixth group receives a composition comprising HMW HA, CBD Complex, valerian root, and scutillaria as the active agents.
(§7) Each composition is administered for a period of sixty (60) days, BID. Each dog is evaluated on days 0 (“Initial Score”), 15, 30, 45, and 60 (“Final Score”) of treatment. The results are averaged and characterized on a scale of 1 (seizure-free) to 10 (daily seizures or multiple seizures during the event).
The following canine scores are observed and the results depicted in FIG. 14: […]

[4] = system: dogs suffering from seizures; assay: Example 6: seizures in dogs; settings: seizure scale 1 (seizure-free) to 10 (daily or multiple seizures)
Description: as §5
as §6, with “CBD” for “CBD Complex”, “CBD,” for “CBD Complex,”
as §7
The following canine scores are observed and the results depicted in FIG. 6: […]

Structure (SMILES)	Improvement Score [1]	Improvement Score [2]	Initial Score ([3]; day 0)	Final Score ([3]; day 60, BID)	Initial Score ([4]; day 0)	Final Score ([4]; day 60, BID)
CN(C)CCCN1c2ccccc2CCc2ccc(Cl)cc21 [Clomicalm ®]	.5	.4				
CCC1(c2ccccc2)C(=O)NC(=O)NC1=O [Phenobarbital]			9	8	9	8
